ChEMBL document CHEMBL3392978 (Eur J Med Chem, 2015)
pIC50: −log10 of the molar value.

Tests used:
[1] = tested on: HepG2; test: Cytotoxicity against human HepG2 cells assessed as reduction in cell viability after 72 hrs by MTT assay; type: functional, cell-based; conditions: HepG2, 72 h
[2] = tested on: NCI-H522; test: Growth inhibition of human NCI-H522 cells at 10 uM after 72 hrs by MTT assay; type: functional; conditions: NCI-H522, 72 h, read-out: GI
[3] = tested on: MCF7; test: Growth inhibition of human MCF7 cells at 10 uM after 72 hrs by MTT assay; type: functional; conditions: MCF7, 72 h, read-out: GI
[4] = tested on: HepG2; test: Growth inhibition of human HepG2 cells at 10 uM after 72 hrs by MTT assay; type: functional; conditions: HepG2, 72 h, read-out: GI
[5] = tested on: A-375; test: Growth inhibition of human A375 cells at 10 uM after 72 hrs by MTT assay; type: functional; conditions: A-375, 72 h, read-out: GI
[6] = tested on: MDA-MB-453; test: Growth inhibition of human MDA-MB-453 cells at 10 uM after 72 hrs by MTT assay; type: functional; conditions: MDA-MB-453, 72 h, read-out: GI
[7] = tested on: A-375; test: Cytotoxicity against human A375 cells assessed as reduction in cell viability after 72 hrs by MTT assay; type: functional, cell-based; conditions: A-375, 72 h
[8] = tested on: SW480; test: Growth inhibition of human SW480 cells at 10 uM after 72 hrs by MTT assay; type: functional; conditions: SW480, 72 h, read-out: GI
[9] = biological target: Serine/threonine-protein kinase B-raf (Homo sapiens, UniProt P15056); test: Inhibition of BRAF (unknown origin) incubated for 15 mins by fluorescence based assay
[10] = tested on: Mus musculus; test: Toxicity in human A375 cells xenografted nude Ncr mouse assessed as body weight changes at 50 mg/kg, ig dosed once daily for 23 days; type: organism-based, A-375; set-up: dose 50 mg/kg, route intragastric; conditions: in vivo, po, 552 h
[11] = tested on: A-375; test: Antitumor activity against human A375 cells xenografted in nude Ncr mouse assessed as reduction in tumor growth at 50 mg/kg, ig dosed once daily for 23 days; type: functional; conditions: A-375, po, 552 h, route intragastric, read-out: TGI
[12] = tested on: MCF7; test: Cytotoxicity against human MCF7 cells assessed as reduction in cell viability after 72 hrs by MTT assay; type: functional, cell-based; conditions: MCF7, 72 h
[13] = biological target: Vascular endothelial growth factor receptor 2 (Homo sapiens, UniProt P35968); test: Inhibition of human recombinant VEGFR2 incubated for 1 hr using [gamma-32P]ATP by top count assay
[14] = tested on: MDA-MB-453; test: Cytotoxicity against human MDA-MB-453 cells assessed as reduction in cell viability after 72 hrs by MTT assay; type: functional, cell-based; conditions: MDA-MB-453, 72 h
[15] = tested on: Mus musculus; test: Toxicity in human A375 cells xenografted nude Ncr mouse assessed as induction of adverse events at 50 mg/kg, ig dosed once daily for 23 days; type: organism-based, A-375; set-up: dose 50 mg/kg, route intragastric; conditions: in vivo, po, 552 h
[16] = tested on: NCI-H522; test: Cytotoxicity against human NCI-H522 cells assessed as reduction in cell viability after 72 hrs by MTT assay; type: functional, cell-based; conditions: NCI-H522, 72 h
[17] = tested on: SW480; test: Cytotoxicity against human SW480 cells assessed as reduction in cell viability after 72 hrs by MTT assay; type: functional, cell-based; conditions: SW480, 72 h

Serine/threonine-protein kinase B-raf, sequence (P15056 whole entry): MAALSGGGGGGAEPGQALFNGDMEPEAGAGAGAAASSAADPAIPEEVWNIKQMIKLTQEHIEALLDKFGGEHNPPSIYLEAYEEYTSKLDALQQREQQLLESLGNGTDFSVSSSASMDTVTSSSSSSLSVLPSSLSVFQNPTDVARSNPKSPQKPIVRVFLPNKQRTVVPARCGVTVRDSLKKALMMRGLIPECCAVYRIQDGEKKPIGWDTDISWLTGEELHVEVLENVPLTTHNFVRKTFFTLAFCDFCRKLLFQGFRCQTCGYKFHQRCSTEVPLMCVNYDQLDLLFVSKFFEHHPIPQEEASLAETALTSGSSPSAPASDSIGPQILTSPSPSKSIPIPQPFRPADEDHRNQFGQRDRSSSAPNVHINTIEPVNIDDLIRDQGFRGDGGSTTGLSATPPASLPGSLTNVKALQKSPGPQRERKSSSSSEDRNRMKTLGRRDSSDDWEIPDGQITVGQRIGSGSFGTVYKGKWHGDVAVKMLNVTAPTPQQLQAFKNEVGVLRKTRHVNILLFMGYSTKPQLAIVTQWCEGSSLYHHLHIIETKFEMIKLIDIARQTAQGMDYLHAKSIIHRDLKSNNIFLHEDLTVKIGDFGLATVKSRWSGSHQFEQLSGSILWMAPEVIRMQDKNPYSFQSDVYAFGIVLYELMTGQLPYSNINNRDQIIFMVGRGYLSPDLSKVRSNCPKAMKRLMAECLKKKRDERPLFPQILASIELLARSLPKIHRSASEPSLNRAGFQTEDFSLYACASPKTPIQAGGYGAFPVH
Vascular endothelial growth factor receptor 2, sequence (P35968 whole entry): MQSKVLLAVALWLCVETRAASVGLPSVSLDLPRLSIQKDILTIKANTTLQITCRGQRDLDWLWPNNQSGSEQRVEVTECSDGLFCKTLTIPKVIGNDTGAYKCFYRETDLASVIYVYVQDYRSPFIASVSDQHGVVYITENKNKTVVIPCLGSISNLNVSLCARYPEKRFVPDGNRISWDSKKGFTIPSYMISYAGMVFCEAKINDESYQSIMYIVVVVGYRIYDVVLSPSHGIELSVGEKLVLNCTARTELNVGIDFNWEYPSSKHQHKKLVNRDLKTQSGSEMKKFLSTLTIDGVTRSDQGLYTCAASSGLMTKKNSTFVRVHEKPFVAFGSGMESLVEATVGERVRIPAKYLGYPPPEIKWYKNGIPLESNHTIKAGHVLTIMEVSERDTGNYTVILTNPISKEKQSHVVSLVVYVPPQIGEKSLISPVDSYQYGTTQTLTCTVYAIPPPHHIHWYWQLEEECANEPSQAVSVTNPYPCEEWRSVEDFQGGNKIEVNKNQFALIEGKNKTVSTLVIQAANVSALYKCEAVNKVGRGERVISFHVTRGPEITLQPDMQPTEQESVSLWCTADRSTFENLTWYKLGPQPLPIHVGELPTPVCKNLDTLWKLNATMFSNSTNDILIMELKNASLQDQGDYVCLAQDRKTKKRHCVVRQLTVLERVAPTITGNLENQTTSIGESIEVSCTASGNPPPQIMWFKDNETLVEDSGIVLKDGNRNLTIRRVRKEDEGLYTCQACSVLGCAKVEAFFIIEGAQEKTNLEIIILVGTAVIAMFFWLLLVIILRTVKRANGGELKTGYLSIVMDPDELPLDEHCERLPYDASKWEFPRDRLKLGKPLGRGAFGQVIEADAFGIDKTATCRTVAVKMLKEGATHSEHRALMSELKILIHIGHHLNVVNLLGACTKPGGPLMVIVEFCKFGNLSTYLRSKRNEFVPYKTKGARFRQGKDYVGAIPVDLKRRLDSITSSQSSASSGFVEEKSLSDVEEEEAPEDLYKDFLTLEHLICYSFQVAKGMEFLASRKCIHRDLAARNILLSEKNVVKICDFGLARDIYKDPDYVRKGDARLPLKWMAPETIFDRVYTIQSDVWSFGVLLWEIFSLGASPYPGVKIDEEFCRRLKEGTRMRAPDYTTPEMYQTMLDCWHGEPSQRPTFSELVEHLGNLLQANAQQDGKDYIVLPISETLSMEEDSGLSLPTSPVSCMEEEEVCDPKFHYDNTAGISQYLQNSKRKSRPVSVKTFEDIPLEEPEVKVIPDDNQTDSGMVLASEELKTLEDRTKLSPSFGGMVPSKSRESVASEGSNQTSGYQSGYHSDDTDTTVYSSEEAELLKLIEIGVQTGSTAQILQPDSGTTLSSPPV

| pIC50 [9] | pIC50 [13] | Compound | pIC50 [1] | inhibition of growth at 10 µM [2] [%] | inhibition of growth at 10 µM [3] [%] | inhibition of growth at 10 µM [4] [%] | inhibition of growth at 10 µM [5] [%] | inhibition of growth at 10 µM [6] [%] | pIC50 [7] | inhibition of growth at 10 µM [8] [%] | Activity [10] | inhibition in vivo at 50 mg/kg [11] [%] | pIC50 [12] | pIC50 [14] | Activity [15] | pIC50 [16] | pIC50 [17] |
| --- | --- | --- | --- | --- | --- | --- | --- | --- | --- | --- | --- | --- | --- | --- | --- | --- | --- |
| 5.61 | – | COc1cccc(C(=O)Nc2ccc(C)c(C(=O)Nc3ccc(-c4ncc[nH]4)nc3)c2)c1 | – | 8.7 | 27.9 | -4.9 | 28.2 | 18 | – | 17.6 | – | – | – | – | – | – | – |
| 6.19 | 4.73 | O=C(Nc1ccc(Cl)c(C(=O)Nc2ccc(-c3ncc[nH]3)nc2)c1)c1ccc(Cl)c(C(F)(F)F)c1 | 4.86 | -3.2 | 41.5 | 54.2 | 62.6 | 49.3 | 5.37 | 38.8 | Non-toxic | 35.7 | 4.81 | 5.08 | Non-toxic | – | – |
| 6.27 | 4.63 | O=C(Nc1ccc(Cl)c(C(F)(F)F)c1)c1ccc(Cl)c(C(=O)Nc2ccc(-c3ncc[nH]3)nc2)c1 | 5.49 | 0.2 | 31.3 | 63.4 | 64.4 | 52.9 | 5.53 | 33.4 | Non-toxic | 42.5 | – | 5.10 | Non-toxic | – | – |

The next lines start with the compound.

| Compound | pIC50 [9] | pIC50 [13] | pIC50 [1] | inhibition of growth at 10 µM [2] [%] | inhibition of growth at 10 µM [3] [%] | inhibition of growth at 10 µM [4] [%] | inhibition of growth at 10 µM [5] [%] | inhibition of growth at 10 µM [6] [%] | pIC50 [7] | inhibition of growth at 10 µM [8] [%] | Activity [10] | inhibition in vivo at 50 mg/kg [11] [%] | pIC50 [12] | pIC50 [14] | Activity [15] | pIC50 [16] | pIC50 [17] |
| --- | --- | --- | --- | --- | --- | --- | --- | --- | --- | --- | --- | --- | --- | --- | --- | --- | --- |
| Cc1ccc(NC(=O)c2ccc(Cl)c(C(F)(F)F)c2)cc1C(=O)Nc1ccc(-c2ncc[nH]2)nc1 | – | – | 5.21 | -11.4 | 30.5 | 47.9 | 42.9 | 12.5 | 4.84 | 16.7 | – | – | – | – | – | – | – |
| COc1ccc(C(=O)Nc2ccc(C)c(C(=O)Nc3ccc(-c4ncc[nH]4)nc3)c2)cc1 | 4.39 | – | – | 27.1 | 36 | 18.7 | 18.7 | 23.5 | – | 26.5 | – | – | – | – | – | – | – |
| Cc1cc(C(=O)Nc2ccc(Cl)c(C(=O)Nc3ccc(-c4ncc[nH]4)nc3)c2)ccc1Cl | – | – | 4.94 | 66.7 | 43.7 | 52.8 | 43.9 | 51.1 | 4.90 | 65.7 | – | – | 4.79 | 5.06 | – | 5.68 | 5.45 |
| O=C(Nc1ccc(Cl)c(C(=O)Nc2ccc(-c3ncc[nH]3)nc2)c1)c1ccc(Cl)c(Cl)c1 | – | – | 4.82 | -21.1 | 35.5 | 57 | 46.1 | 45.3 | 5.03 | 47.2 | – | – | – | 4.94 | – | – | 5.03 |
| CNC(=O)c1cc(Oc2ccc(NC(=O)Nc3ccc(Cl)c(C(F)(F)F)c3)cc2)ccn1 [SORAFENIB] | – | – | 5.24 | 39.4 | 23 | 59.9 | 44.1 | 36.9 | 4.79 | 28.1 | – | 76.6 | – | – | – | 4.72 | – |
